Laboratory results: patent US9512142B2, “Tricyclic triazolic compounds” (LABORATORIOS DEL DR. ESTEVE S.A., priority 2013, dated 2016)
Read-outs that look alike come from different tables or passages of the source.

Key:
[1] = molecular target: T1, human sigma 1 receptor (Homo sapiens, UniProt Q99720); test: Human sigma 1 receptor radioligand assay ([3H](+)-pentazocine, transfected HEK-293 membranes); assay type: binding; conditions: 5 nM [3H](+)-pentazocine, transfected HEK-293 membranes, 37° C., 120 minutes; read-out: Ki
T1 construct: expressed in transfected cells; host or cells: HEK-293
T1 sequence (Q99720 whole entry): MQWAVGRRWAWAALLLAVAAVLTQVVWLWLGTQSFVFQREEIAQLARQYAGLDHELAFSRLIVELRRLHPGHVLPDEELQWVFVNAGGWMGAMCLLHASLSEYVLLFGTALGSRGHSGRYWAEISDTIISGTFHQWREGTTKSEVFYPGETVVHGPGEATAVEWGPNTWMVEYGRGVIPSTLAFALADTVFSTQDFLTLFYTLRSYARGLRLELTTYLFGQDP
Description: Human Sigma 1 Receptor Radioligand Assay
The assay was carried out with 7 μg of membrane suspension, 5 nM of [^3H](+)-pentazocine in either absence or presence of either buffer or 10 μM Haloperidol for total and non-specific binding, respectively. Binding buffer contained Tris-HCl 50 mM at pH 8. Plates were incubated at 37° C. for 120 minutes. After the incubation period, the reaction mix was then transferred to MultiScreen HTS, FC plates (Millipore), filtered and plates were washed 3 times with ice-cold 10 mM Tris-HCL (pH7.4). Filters were dried and counted at approximately 40% efficiency in a MicroBeta scintillation counter (Perkin-Elmer) using EcoScint liquid scintillation cocktail.

[2] = Kinetic solubility; assay type: physicochemical; conditions: kinetic from dmso stock, buffered aqueous solution at pH=7.4, 10 μL of 10 mM DMSO solution in 1 mL, stirred 4 hours, supernatant by liquid chromatography, read-out: Kin. Solub.
Description: To a buffered aqueous solution at pH=7.4 (1 mL), a 10 mM DMSO solution of the test compound (10 μL) was added and the mixture stirred for 4 hours. After centrifugation, the compound concentration in the supernatant was determined by liquid chromatography by fitting in a calibration curve of the compound.

[3] = buffered aqueous solution, pH 7.4, aqueous buffer

Row | SMILES | Ki [1] | solubility at 4 h [2, 3] | solubility at 4 h ([2]; aqueous buffer)
1 | COc1ccc(CN2C[C@@H]3OCc4c(-c5ccc(F)cc5Cl)nnn4[C@H]3C2)cn1.Cl [Example 50, (5aS,8aS)-3-(2-chloro-4-fluorophenyl)-7-((6-methoxypyridin-3-yl)methyl)-4,5a,6,7,8,8a-hexahydropyrrolo[3,4-b][1,2,3]triazolo[1,5-d][1,4]oxazine hydrochloride] | 99.9 nM | > 10 µM | 
2 | COc1ccc(CN2C[C@@H]3[C@@H](C2)OCc2c(-c4ccc(F)cc4F)nnn23)cn1.Cl [Example 51, (5aR,8aR)-3-(2,4-difluorophenyl)-7-((6-methoxypyridin-3-yl)methyl)-4,5a,6,7,8,8a-hexahydropyrrolo[3,4-b][1,2,3]triazolo[1,5-d][1,4]oxazine hydrochloride] | 234 nM | > 10 µM | 
3 | COc1ccc(CN2C[C@@H]3OCc4c(-c5ccc(F)cc5F)nnn4[C@H]3C2)cn1.Cl [Example 52, (5aS,8aS)-3-(2,4-difluorophenyl)-7-((6-methoxypyridin-3-yl)methyl)-4,5a,6,7,8,8a-hexahydropyrrolo[3,4-b][1,2,3]triazolo[1,5-d][1,4]oxazine hydrochloride] | 272 nM | > 10 µM | 
4 | Cl.Clc1ccc(-c2nnn3c2CO[C@H]2CN(CCC4CCOCC4)C[C@@H]23)c(Cl)c1 [Example 53, (5aS,8aS)-3-(2,4-dichlorophenyl)-7-(2-(tetrahydro-2H-pyran-4-yl)ethyl)-4,5a,6,7,8,8a-hexahydropyrrolo[3,4-b][1,2,3]triazolo[1,5-d][1,4]oxazine hydrochloride] | 16.8 nM | > 10 µM | 
5 | Cl.Clc1ccc(-c2nnn3c2CO[C@@H]2CN(CCC4CCOCC4)C[C@H]23)c(Cl)c1 [Example 54, (5aR,8aR)-3-(2,4-dichlorophenyl)-7-(2-(tetrahydro-2H-pyran-4-yl)ethyl)-4,5a,6,7,8,8a-hexahydropyrrolo[3,4-b][1,2,3]triazolo[1,5-d][1,4]oxazine hydrochloride] | 71.4 nM | > 10 µM | 
6 | Cl.FC(F)(F)c1ccc(-c2nnn3c2CO[C@H]2CN(C4CCOCC4)C[C@@H]23)c(Cl)c1 [Example 55, (5aS,8aS)-3-(2-chloro-4-(trifluoromethyl)phenyl)-7-(tetrahydro-2H-pyran-4-yl)-4,5a,6,7,8,8a-hexahydropyrrolo[3,4-b][1,2,3]triazolo[1,5-d][1,4]oxazine hydrochloride] | 23.3 nM |  | > 10 µM
7 | Cl.Clc1ccc(-c2nnn3c2CO[C@H]2CN(C[C@@H]4CCOC4)C[C@@H]23)c(Cl)c1 [Example 56, (5aS,8aS)-3-(2,4-dichlorophenyl)-7-(((S)-tetrahydrofuran-3-yl)methyl)-4,5a,6,7,8,8a-hexahydropyrrolo[3,4-b][1,2,3]triazolo[1,5-d][1,4]oxazine hydrochloride] | 22.7 nM | > 10 µM | 
8 | Cl.Cn1nccc1-c1nnn2c1CO[C@@H]1CN(Cc3ccc(F)cc3)C[C@H]12 [Example 66, (5aR,8aR)-7-(4-fluorobenzyl)-3-(1-methyl-1H-pyrazol-5-yl)-4,5a,6,7,8,8a-hexahydropyrrolo[3,4-b][1,2,3]triazolo[1,5-d][1,4]oxazine hydrochloride] | 138 nM |  | > 10 µM

Further lines, with some results ahead:

Row | Ki [1] | solubility at 4 h [2, 3] | SMILES | solubility at 4 h ([2]; aqueous buffer)
9 | 195 nM | > 10 µM | Cl.Clc1ccc(-c2nnn3c2CO[C@@H]2CN(C[C@H]4CCOC4)C[C@H]23)c(Cl)c1 [Example 57, (5aR,8aR)-3-(2,4-dichlorophenyl)-7-(((R)-tetrahydrofuran-3-yl)methyl)-4,5a,6,7,8,8a-hexahydropyrrolo[3,4-b][1,2,3]triazolo[1,5-d][1,4]oxazine hydrochloride] | 
10 | 25.4 nM | > 10 µM | Cl.Clc1ccc(-c2nnn3c2CO[C@H]2CN(C[C@H]4CCOC4)C[C@@H]23)c(Cl)c1 [Example 58, (5aS,8aS)-3-(2,4-dichlorophenyl)-7-(((R)-tetrahydrofuran-3-yl)methyl)-4,5a,6,7,8,8a-hexahydropyrrolo[3,4-b][1,2,3]triazolo[1,5-d][1,4]oxazine hydrochloride] | 
11 | 181 nM | > 10 µM | Cl.Clc1ccc(-c2nnn3c2CO[C@@H]2CN(C[C@@H]4CCOC4)C[C@H]23)c(Cl)c1 [Example 59, (5aR,8aR)-3-(2,4-dichlorophenyl)-7-(((S)-tetrahydrofuran-3-yl)methyl)-4,5a,6,7,8,8a-hexahydropyrrolo[3,4-b][1,2,3]triazolo[1,5-d][1,4]oxazine hydrochloride] | 
12 | 102 nM | > 10 µM | Cc1occc1CN1C[C@@H]2[C@@H](C1)OCc1c(-c3ccc(F)cc3F)nnn12.Cl [Example 60, (5aR,8aR)-3-(2,4-difluorophenyl)-7-((2-methylfuran-3-yl)methyl)-4,5a,6,7,8,8a-hexahydropyrrolo[3,4-b][1,2,3]triazolo[1,5-d][1,4]oxazine hydrochloride] | 
13 | 73.7 nM | > 10 µM | Cc1occc1CN1C[C@@H]2OCc3c(-c4ccc(F)cc4F)nnn3[C@H]2C1.Cl [Example 61, (5aS,8aS)-3-(2,4-difluorophenyl)-7-((2-methylfuran-3-yl)methyl)-4,5a,6,7,8,8a-hexahydropyrrolo[3,4-b][1,2,3]triazolo[1,5-d][1,4]oxazine hydrochloride] | 
14 | 39.2 nM | > 10 µM | Cl.Fc1ccc(-c2nnn3c2CO[C@H]2CN(Cc4ccoc4)C[C@@H]23)c(F)c1 [Example 62, (5aS,8aS)-3-(2,4-difluorophenyl)-7-(furan-3-ylmethyl)-4,5a,6,7,8,8a-hexahydropyrrolo[3,4-b][1,2,3]triazolo[1,5-d][1,4]oxazine hydrochloride] | 
15 | 37.7 nM | > 10 µM | Cl.Fc1ccc(-c2nnn3c2CO[C@@H]2CN(Cc4ccoc4)C[C@H]23)c(F)c1 [Example 63, (5aR,8aR)-3-(2,4-difluorophenyl)-7-(furan-3-ylmethyl)-4,5a,6,7,8,8a-hexahydropyrrolo[3,4-b][1,2,3]triazolo[1,5-d][1,4]oxazine hydrochloride] | 
